The source of these data is paper PMC9124866, “Structure-Activity Relationships of Dopamine Transporter Pharmacological Chaperones” (Frontiers in Cellular Neuroscience, 2022).

One assay deals with T1, WT DAT (YFP-HA-DAT) (Homo sapiens, UniProt Q01959).
T1 construct: expressed in transfected cells; host or cells: HEK293
Briefly: Western blot of mature WT DAT protein levels. The settings on record: overnight 100 μM. It is filed as cell-based. On the procedure: Cells (1 × 10^6 cells/well) were seeded onto a 6-well plate and incubated for 24 h. Cells were then treated with drugs and incubated for 16 h. After the incubation period, cells were lysed in RIPA buffer supplemented with protease inhibitors (working concentrations: pepstatin A, 5 μg/mL; leupeptin, 10 μg/mL; aprotinin, 1.5 μg/mL; benzamidine, 0.1 μg/mL; PMSF, 0.1 mM) on ice. At 4°C, cell lysates were gently shaken for 15 min followed by centrifugation at 15,000 rpm for 15 min to pellet debris. The Pierce BCA protein assay kit (Thermo Fisher Scientific, Canada) was used to determine the protein concentration of the supernatant. To reach a concentration of 40 μg of protein per 20 μL, samples were diluted in fresh RIPA buffer with 12.5% Laemmli sample buffer and 2.5% β-Mercaptoethanol prior to being heated to 55°C. The protein was then loaded on a 7.5 or 10% SDS-PAGE gel and run at 100 V for approximately an hour or until the dye front reached the bottom of the gel. Next, protein was transferred to a PVDF membrane at 22 V for 16 h or 100 V for 1 h. Blots were blocked with LI-COR blocking buffer for 1 h and incubated for 1 h at room temperature with rabbit anti-GFP (1:1,000 dilution; Life Technologies, cat#A11122). After washing three times with TBST, blots were incubated with goat anti-rabbit IRDye-680RD secondary antibody (1:15,000; LI-COR, cat#926-68071). As a loading control, blots were incubated with mouse anti-GAPDH (1:5,000, Sigma-Aldrich, Canada, cat#G8795) prior to secondary antibody goat anti-mouse IRDye-800GR (1:5,000 dilution, Rockland, Limerick, PA, cat#610-132-007). All antibodies were diluted in LI-COR blocking buffer. Additionally, REVERT total protein staining (LI-COR, Lincoln, NE) was used as a loading control. […] Mature, fully glycosylated DAT (mDAT = 110 kDa) and immature, ER-resident DAT (iDAT = 75 kDa) were visualized using the Odyssey Imaging System (LI-COR, Lincoln, NE) and Image Studio Version 5.2 software (Supplementary Figure 1).
We next assessed whether drugs that increase DAT surface expression also increase total protein levels of DAT. Cells expressing YFP-HA-DAT were incubated with select test compounds and DAT protein levels were examined by western blot. The effects of the compounds were assessed on WT DAT and K590A DAT. The K590A mutant is a well-characterized ER-retained, trafficking-deficient DAT mutant ([Miranda et al., 2004]) that can be rescued by pharmacological chaperones ([Beerepoot et al., 2016]).
FIGURE 5 Effect of noribogaine, tetrahydroharmine, PAL-594, bicifadine, and RTI-20 on WT and K590A DAT expression. […] (B) Quantification of WT mDAT protein levels. […] (D) Quantification of K590A mDAT protein levels. […]

In another assay the target is T2, DAT (Homo sapiens, UniProt Q01959).
T2 construct: expressed in transfected cells
As to the kind of experiment: Dopamine uptake inhibition dose response of hit compounds (Figure 6). Type of assay: cell-based. The settings on record: doses 1 nM to 100 μM, normalized to vehicle. On the procedure:
Dopamine uptake inhibition was conducted using the Neurotransmitter Transporter Uptake Assay Kit (Molecular Devices, prod#R8173). Cells (1 × 10^5/well) were seeded into 96-well plates and incubated for 24 h. The cells were subjected to overnight drug treatment. The following day, wells were washed and incubated for 30 min with a mixture of 1X Hank’s Balanced Salt Solution (HBSS) and 0.1% Bovine Serum Albumin (BSA) Buffer. Dopamine uptake inhibitors were added during the incubation period. Following the incubation, the fluorescent dye was added, and the plate was immediately transferred to the bottom-read fluorescence microplate reader (Spectramax M3, Molecular Devices) for kinetic read-mode. The assay reads the amount of fluorescent activity which increases as fluorescent dye molecules are transported into the cells by the DAT. The read-out for this assay is the slope which equals the fluorescent measurements/time, ultimately denoting the uptake rate.
Data analysis was performed using GraphPad Prism (GraphPad Software, La Jolla, CA). Linear regression analysis was performed on βLAC time points to determine the slope, thus the rate of reaction, for comparison. Furthermore, the slope was also used to determine the degree of dopamine uptake in the dopamine uptake assays. […]

T1 sequence (Q01959 whole entry): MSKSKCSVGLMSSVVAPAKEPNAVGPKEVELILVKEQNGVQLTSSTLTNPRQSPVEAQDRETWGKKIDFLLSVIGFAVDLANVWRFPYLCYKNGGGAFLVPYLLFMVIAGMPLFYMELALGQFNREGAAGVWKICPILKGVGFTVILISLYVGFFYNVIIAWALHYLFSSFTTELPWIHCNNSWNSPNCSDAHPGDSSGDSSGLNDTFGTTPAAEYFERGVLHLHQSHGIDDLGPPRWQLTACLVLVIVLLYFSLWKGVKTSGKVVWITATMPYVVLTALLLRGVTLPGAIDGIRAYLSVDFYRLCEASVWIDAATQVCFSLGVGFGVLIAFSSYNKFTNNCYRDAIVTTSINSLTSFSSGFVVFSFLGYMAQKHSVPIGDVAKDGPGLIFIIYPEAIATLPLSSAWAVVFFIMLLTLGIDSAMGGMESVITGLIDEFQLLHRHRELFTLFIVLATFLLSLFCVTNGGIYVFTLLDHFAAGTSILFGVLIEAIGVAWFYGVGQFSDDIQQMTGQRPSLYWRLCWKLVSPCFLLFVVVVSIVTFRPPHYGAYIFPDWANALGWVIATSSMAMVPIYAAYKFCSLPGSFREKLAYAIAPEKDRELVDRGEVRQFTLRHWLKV
T2 sequence (Q01959 whole entry): as above

On to `CCC1CC2CC3c4[nH]c5ccc(O)cc5c4CCN(C2)C13` (centres unmarked) [Noribogaine, reference compound], for which, on WT DAT (YFP-HA-DAT), the “mature WT DAT (mDAT) protein levels” value is given as “significantly increase”. The “maximal dopamine uptake inhibition” value on DAT turned out to be 76%.
